Results as given in patent US9708314B2, “Heterocyclic amide compound” (NISSAN CHEMICAL INDUSTRIES, LTD., priority 2013, dated 2017).

Experiments:
Format in all cases: in vivo
[1] = system: Echinochloa crus-galli var. crus-galli; test: Test Example 3: herbicidal effect by application to foliage (Wagner pot, water depth 0.1-0.5 cm); settings: Nineteenth Table; application to foliage; application herbicide amount 320 g/ha
Outline: (§1)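 Plants are raised 14 days from seed in flooded-surface Wagner pots at 25–30 °C, sprayed on stems and leaves with diluted emulsion at a predetermined rate, and rated three weeks on using a 0–5 herbicidal-ratio scale (5 ≥90%).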

Leptochloa chinensis = test: as above; settings: Nineteenth Table; application to foliage; application herbicide amount 320 g/ha
Outline: as §1

Abutilon theophrasti = test: Test Example 4: herbicidal effect by application to foliage (diluvial soil, plastic box); settings: application to foliage; for M: herbicidal effect on Abutilon theophrasti: application herbicide amount 320 g/ha
Outline: (§2)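 Greenhouse plants (25° C. to 30° C., 14 d, diluvial soil) receive a foliar spray of water-diluted emulsifiable formulation at defined g/ha. Grading after 3 weeks uses a six-step herbicidal-ratio scale, with 4 covering 70% to <90% and 1 covering 5% to <20%.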

Alopecurus myosuroides = test: as above; settings: application to foliage; for J: herbicidal effect on Alopecurus myosuroides: application herbicide amount 320 g/ha
Outline: as §2

Apera spica-venti. = test: as above; settings: application to foliage; for L: herbicidal effect on Apera spica-venti.: application herbicide amount 320 g/ha
Outline: as §2

Avena fatua = test: as above; settings: application to foliage; for I: herbicidal effect on Avena fatua: application herbicide amount 320 g/ha
Outline: as §2

Chenopodium album = test: as above; settings: application to foliage; for O: herbicidal effect on Chenopodium album: application herbicide amount 320 g/ha
Outline: as §2

Digitaria ciliaris = test: as above; settings: application to foliage; for F: herbicidal effect on Digitaria ciliaris: application herbicide amount 320 g/ha
Outline: as §2

[2] = system: Echinochloa crus-galli var. crus-galli; test: as above; settings: application to foliage; for H: herbicidal effect on Echinochloa crus-galli var. crus-galli: application herbicide amount 320 g/ha
Outline: as §2

Galium spurium = test: as above; settings: application to foliage; for Q: herbicidal effect on Galium spurium: application herbicide amount 320 g/ha
Outline: as §2

Lolium multiflorum Lam. = test: as above; settings: application to foliage; for K: herbicidal effect on Lolium multiflorum Lam.: application herbicide amount 320 g/ha
Outline: as §2

Setaria viridis = test: as above; settings: application to foliage; for G: herbicidal effect on Setaria viridis: application herbicide amount 320 g/ha
Outline: as §2

[3] = system: Beta vulgaris ssp. vulgaris; test: Test Example 4: effect on crop by application to foliage (diluvial soil, plastic box); settings: application to foliage; for f: effect on crop, Beta vulgaris ssp. vulgaris: application herbicide amount 320 g/ha
Outline: as §2

Brassica campestris L. = test: as above; settings: application to foliage; for g: effect on crop, Brassica campestris L.: application herbicide amount 320 g/ha
Outline: as §2

Glycine max = test: as above; settings: application to foliage; for d: effect on crop, Glycine max: application herbicide amount 320 g/ha
Outline: as §2

Triticum aestivum = test: as above; settings: application to foliage; for e: effect on crop, Triticum aestivum: application herbicide amount 320 g/ha
Outline: as §2

Zea mays = test: as above; settings: application to foliage; for c: effect on crop, Zea mays: application herbicide amount 320 g/ha
Outline: as §2

[4] = system: directly sowed Oryza sativa; test: as above; settings: application to foliage; for b: effect on crop, directly sowed Oryza sativa: application herbicide amount 320 g/ha
Outline: as §2

| SMILES | H (herbicidal effect grade) [1] | D (herbicidal effect grade) (Leptochloa chinensis) | M: herbicidal effect on Abutilon theophrasti (Abutilon theophrasti) | J: herbicidal effect on Alopecurus myosuroides (Alopecurus myosuroides) | L: herbicidal effect on Apera spica-venti. (Apera spica-venti.) | I: herbicidal effect on Avena fatua (Avena fatua) | O: herbicidal effect on Chenopodium album (Chenopodium album) | F: herbicidal effect on Digitaria ciliaris (Digitaria ciliaris) | H: herbicidal effect on Echinochloa crus-galli var. crus-galli [2] | Q: herbicidal effect on Galium spurium (Galium spurium) | K: herbicidal effect on Lolium multiflorum Lam. (Lolium multiflorum Lam.) | G: herbicidal effect on Setaria viridis (Setaria viridis) | f: effect on crop, Beta vulgaris ssp. vulgaris [3] | g: effect on crop, Brassica campestris L. (Brassica campestris L.) | d: effect on crop, Glycine max (Glycine max) | e: effect on crop, Triticum aestivum (Triticum aestivum) | c: effect on crop, Zea mays (Zea mays) | b: effect on crop, directly sowed Oryza sativa [4] | other results |
| --- | --- | --- | --- | --- | --- | --- | --- | --- | --- | --- | --- | --- | --- | --- | --- | --- | --- | --- | --- |
| COCCc1nnc2c(C(=O)Nc3nnc(C)o3)ccc(C(F)(F)F)n12 [1-173] | 5 (Herbicidal ratio of 90% or more (almost completely withered)) | 4 (Herbicidal ratio of 70% or more and less than 90%) | 5 (Herbicidal ratio of 90% or more (almost completely withered)) | 1 (Herbicidal ratio of 5% or more and less than 20%) | 1 (Herbicidal ratio of 5% or more and less than 20%) | 2 (Herbicidal ratio of 20% or more and less than 40%) | 5 (Herbicidal ratio of 90% or more (almost completely withered)) | 4 (Herbicidal ratio of 70% or more and less than 90%) | 5 (Herbicidal ratio of 90% or more (almost completely withered)) | 4 (Herbicidal ratio of 70% or more and less than 90%) | 1 (Herbicidal ratio of 5% or more and less than 20%) | 3 (Herbicidal ratio of 40% or more and less than 70%) | 5 (Herbicidal ratio of 90% or more (almost completely withered)) | 4 (Herbicidal ratio of 70% or more and less than 90%) | 4 (Herbicidal ratio of 70% or more and less than 90%) | 1 (Herbicidal ratio of 5% or more and less than 20%) | 0 (Herbicidal ratio of 5% or less (almost no effect)) | 3 (Herbicidal ratio of 40% or more and less than 70%) |  |
| CCSc1nnc2c(C(=O)Nc3ncnn3C)ccc(C(F)(F)F)n12 [4-003] | 4 (Herbicidal ratio of 70% or more and less than 90%) | 3 (Herbicidal ratio of 40% or more and less than 70%) |  |  |  |  |  |  |  |  |  |  |  |  |  |  |  |  | herbicidal effect, M (Abutilon theophrasti) (Abutilon theophrasti; 320 g/ha): 4 (Herbicidal ratio of 70% or more and less than 90%); herbicidal effect, J (Alopecurus myosuroides) (Alopecurus myosuroides; 320 g/ha): 0 (Herbicidal ratio of 5% or less (almost no effect)); herbicidal effect, L (Apera spica-venti.) (Apera spica-venti.; 320 g/ha): 1 (Herbicidal ratio of 5% or more and less than 20%); herbicidal effect, I (Avena fatua) (Avena fatua; 320 g/ha): 0 (Herbicidal ratio of 5% or less (almost no effect)); herbicidal effect, O (Chenopodium album) (Chenopodium album; 320 g/ha): 5 (Herbicidal ratio of 90% or more (almost completely withered)); herbicidal effect, F (Digitaria ciliaris) (Digitaria ciliaris; 320 g/ha): 2 (Herbicidal ratio of 20% or more and less than 40%); herbicidal effect, H (Echinochloa crus-galli var. crus-galli) ([2]; 320 g/ha): 4 (Herbicidal ratio of 70% or more and less than 90%); herbicidal effect, Q (Galium spurium) (Galium spurium; 320 g/ha): 1 (Herbicidal ratio of 5% or more and less than 20%); herbicidal effect, K (Lolium multiflorum Lam.) (Lolium multiflorum Lam.; 320 g/ha): 0 (Herbicidal ratio of 5% or less (almost no effect)); herbicidal effect, G (Setaria viridis) (Setaria viridis; 320 g/ha): 1 (Herbicidal ratio of 5% or more and less than 20%); effect on crop, f (Beta vulgaris ssp. vulgaris) ([3]; 320 g/ha): 4 (Herbicidal ratio of 70% or more and less than 90%); effect on crop, g (Brassica campestris L.) (Brassica campestris L.; 320 g/ha): 1 (Herbicidal ratio of 5% or more and less than 20%); effect on crop, c (Glycine max) (Glycine max; 320 g/ha): 0 (Herbicidal ratio of 5% or less (almost no effect)); effect on crop, e (Triticum aestivum) (Triticum aestivum; 320 g/ha): 0 (Herbicidal ratio of 5% or less (almost no effect)); effect on crop, b (Zea mays) (Zea mays; 320 g/ha): 0 (Herbicidal ratio of 5% or less (almost no effect)); effect on crop, d (directly sowed Oryza sativa) ([4]; 320 g/ha): 4 (Herbicidal ratio of 70% or more and less than 90%) |
| C#CCN(C)c1nnc2c(C(=O)Nc3nnco3)ccc(C(F)(F)F)n12 [1-163] | 5 (Herbicidal ratio of 90% or more (almost completely withered)) | 5 (Herbicidal ratio of 90% or more (almost completely withered)) | 4 (Herbicidal ratio of 70% or more and less than 90%) | 1 (Herbicidal ratio of 5% or more and less than 20%) | 1 (Herbicidal ratio of 5% or more and less than 20%) | 2 (Herbicidal ratio of 20% or more and less than 40%) | 5 (Herbicidal ratio of 90% or more (almost completely withered)) | 4 (Herbicidal ratio of 70% or more and less than 90%) | 5 (Herbicidal ratio of 90% or more (almost completely withered)) | 3 (Herbicidal ratio of 40% or more and less than 70%) | 1 (Herbicidal ratio of 5% or more and less than 20%) | 3 (Herbicidal ratio of 40% or more and less than 70%) | 4 (Herbicidal ratio of 70% or more and less than 90%) | 3 (Herbicidal ratio of 40% or more and less than 70%) | 4 (Herbicidal ratio of 70% or more and less than 90%) | 1 (Herbicidal ratio of 5% or more and less than 20%) | 0 (Herbicidal ratio of 5% or less (almost no effect)) | 0 (Herbicidal ratio of 5% or less (almost no effect)) |  |
| C=CCN(C)c1nnc2c(C(=O)Nc3nnc(C)o3)ccc(C(F)(F)F)n12 [1-166] | 4 (Herbicidal ratio of 70% or more and less than 90%) | 3 (Herbicidal ratio of 40% or more and less than 70%) | 3 (Herbicidal ratio of 40% or more and less than 70%) | 0 (Herbicidal ratio of 5% or less (almost no effect)) | 1 (Herbicidal ratio of 5% or more and less than 20%) | 1 (Herbicidal ratio of 5% or more and less than 20%) | 5 (Herbicidal ratio of 90% or more (almost completely withered)) | 5 (Herbicidal ratio of 90% or more (almost completely withered)) | 5 (Herbicidal ratio of 90% or more (almost completely withered)) | 1 (Herbicidal ratio of 5% or more and less than 20%) | 1 (Herbicidal ratio of 5% or more and less than 20%) | 4 (Herbicidal ratio of 70% or more and less than 90%) | 5 (Herbicidal ratio of 90% or more (almost completely withered)) | 4 (Herbicidal ratio of 70% or more and less than 90%) | 4 (Herbicidal ratio of 70% or more and less than 90%) | 0 (Herbicidal ratio of 5% or less (almost no effect)) | 0 (Herbicidal ratio of 5% or less (almost no effect)) | 0 (Herbicidal ratio of 5% or less (almost no effect)) |  |
